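Five compound concentrations were applied to cells in 96-well plates for 48 hours; endpoints were derived by simple linear interpolation of the resulting dose-response curve. GI50 = concentration required for 50% inhibition of growth. TGI: total growth inhibition.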
Assays:
Assay in all cases: DTP human tumour cell line panel, 48 h
IGROV1 ovarian = system: IGROV1 ovarian
HT29 colon = system: HT29 colon
NCI-H522 lung = system: NCI-H522 lung
UACC-257 melanoma = system: UACC-257 melanoma
HOP-62 NSCLC = system: HOP-62 NSCLC
PC-3 prostate = system: PC-3 prostate
SR leukemia = system: SR leukemia
SF-539 CNS = system: SF-539 CNS
SK-MEL-28 melanoma = system: SK-MEL-28 melanoma
HL-60(TB) leukemia = system: HL-60(TB) leukemia
NCI-H23 lung = system: NCI-H23 lung
NCI/ADR-RES ovarian = system: NCI/ADR-RES ovarian
ACHN renal = system: ACHN renal
OVCAR-8 ovarian = system: OVCAR-8 ovarian
NCI-H226 lung = system: NCI-H226 lung
TK-10 renal = system: TK-10 renal
A549 NSCLC = system: A549 NSCLC
HCT-15 colon = system: HCT-15 colon
U251 CNS = system: U251 CNS
T-47D breast = system: T-47D breast
CAKI-1 renal = system: CAKI-1 renal
HCT-116 colon = system: HCT-116 colon
SF-268 CNS = system: SF-268 CNS
M14 melanoma = system: M14 melanoma
BT-549 breast = system: BT-549 breast
SNB-75 CNS = system: SNB-75 CNS
A498 renal = system: A498 renal
SK-MEL-2 melanoma = system: SK-MEL-2 melanoma
NCI-H460 lung = system: NCI-H460 lung
UACC-62 melanoma = system: UACC-62 melanoma
SNB-19 CNS = system: SNB-19 CNS
MDA-MB-231 breast = system: MDA-MB-231 breast
OVCAR-5 ovarian = system: OVCAR-5 ovarian
SN12C renal = system: SN12C renal
OVCAR-4 ovarian = system: OVCAR-4 ovarian
786-0 renal = system: 786-0 renal
EKVX NSCLC = system: EKVX NSCLC
OVCAR-3 ovarian = system: OVCAR-3 ovarian
HCC-2998 colon = system: HCC-2998 colon
KM12 colon = system: KM12 colon
DU-145 prostate = system: DU-145 prostate
SW-620 colon = system: SW-620 colon
CCRF-CEM leukemia = system: CCRF-CEM leukemia
COLO 205 colon = system: COLO 205 colon
LOX IMVI melanoma = system: LOX IMVI melanoma
RXF 393 renal = system: RXF 393 renal
HS 578T breast = system: HS 578T breast
SK-MEL-5 melanoma = system: SK-MEL-5 melanoma
MDA-MB-435 = system: MDA-MB-435
UO-31 renal = system: UO-31 renal
HOP-92 NSCLC = system: HOP-92 NSCLC
MALME-3M melanoma = system: MALME-3M melanoma
MOLT-4 leukemia = system: MOLT-4 leukemia
SK-OV-3 ovarian = system: SK-OV-3 ovarian
MCF7 breast = system: MCF7 breast
RPMI-8226 leukemia = system: RPMI-8226 leukemia
K-562 leukemia = system: K-562 leukemia
SF-295 CNS = system: SF-295 CNS

Compound `COc1cc(N2CCN(C(C)C)CC2)ccc1Nc1nc(Nc2ccc(F)cc2C(N)=O)c2cc[nH]c2n1` has a GI50 (IGROV1 ovarian) of 0.392 µM, a TGI (IGROV1 ovarian) of 6.94 µM and a GI50 (HT29 colon) of 0.0208 µM. It also gave a TGI (HT29 colon) of 2.88 µM, a GI50 (NCI-H522 lung) of 2.8 µM and a TGI (NCI-H522 lung) of 6.42 µM. It also gave a GI50 (UACC-257 melanoma) of 0.194 µM, a TGI (UACC-257 melanoma) of 5.6 µM and a GI50 (HOP-62 NSCLC) of 0.668 µM. For the same compound, the TGI (HOP-62 NSCLC) was 5.26 µM, the GI50 (PC-3 prostate) was 3.75 µM and the TGI (PC-3 prostate) was 12.9 µM. It also gave a GI50 (SR leukemia) of 0.0145 µM, a TGI (SR leukemia) of 10.1 µM and a GI50 (SF-539 CNS) of 2.76 µM. The TGI (SF-539 CNS) was 6.33 µM, the GI50 (SK-MEL-28 melanoma) was 3.69 µM and the TGI (SK-MEL-28 melanoma) was 7.59 µM. For the same compound, the GI50 (HL-60(TB) leukemia) was 0.0594 µM, the TGI (HL-60(TB) leukemia) was 4.7 µM and the GI50 (NCI-H23 lung) was 0.304 µM. The TGI (NCI-H23 lung) was 6.65 µM, the GI50 (NCI/ADR-RES ovarian) was 3.76 µM and the TGI (NCI/ADR-RES ovarian) was 11.6 µM. It also gave a GI50 (ACHN renal) of 0.502 µM, a TGI (ACHN renal) of 5.2 µM and a GI50 (OVCAR-8 ovarian) of 0.363 µM. For the same compound, the TGI (OVCAR-8 ovarian) was 5.43 µM, the GI50 (NCI-H226 lung) was 1.11 µM and the TGI (NCI-H226 lung) was 6.65 µM. The GI50 (TK-10 renal) was 0.17 µM, the TGI (TK-10 renal) was 4.68 µM and the GI50 (A549 NSCLC) was 0.121 µM. The TGI (A549 NSCLC) was 4.17 µM, the GI50 (HCT-15 colon) was 0.387 µM and the TGI (HCT-15 colon) was 8.16 µM. The GI50 (U251 CNS) was 2.72 µM, the TGI (U251 CNS) was 6.13 µM and the GI50 (T-47D breast) was 3.49 µM. The TGI (T-47D breast) was 8.2 µM, the GI50 (CAKI-1 renal) was 0.911 µM and the TGI (CAKI-1 renal) was 5.29 µM. The GI50 (HCT-116 colon) was 0.119 µM, the TGI (HCT-116 colon) was 3.6 µM and the GI50 (SF-268 CNS) was 3.36 µM. The TGI (SF-268 CNS) was 7.92 µM, the GI50 (M14 melanoma) was 0.18 µM and the TGI (M14 melanoma) was 4.07 µM. The GI50 (BT-549 breast) was 3.28 µM, the TGI (BT-549 breast) was 6.93 µM and the GI50 (SNB-75 CNS) was 3.04 µM. It also gave a TGI (SNB-75 CNS) of 6.32 µM, a GI50 (A498 renal) of 0.165 µM and a TGI (A498 renal) of 3.65 µM. For the same compound, the GI50 (SK-MEL-2 melanoma) was 0.163 µM, the TGI (SK-MEL-2 melanoma) was 1.77 µM and the GI50 (NCI-H460 lung) was 0.0985 µM. The TGI (NCI-H460 lung) was 3.72 µM, the GI50 (UACC-62 melanoma) was 2.53 µM and the TGI (UACC-62 melanoma) was 6.42 µM. For the same compound, the GI50 (SNB-19 CNS) was 3.98 µM, the TGI (SNB-19 CNS) was 11.4 µM and the GI50 (MDA-MB-231 breast) was 2.98 µM. For the same compound, the TGI (MDA-MB-231 breast) was 7.22 µM, the GI50 (OVCAR-5 ovarian) was 0.245 µM and the TGI (OVCAR-5 ovarian) was 6.27 µM. For the same compound, the GI50 (SN12C renal) was 2.54 µM, the TGI (SN12C renal) was 5.9 µM and the GI50 (OVCAR-4 ovarian) was 2.98 µM. For the same compound, the TGI (OVCAR-4 ovarian) was 7.04 µM, the GI50 (786-0 renal) was 1.33 µM and the TGI (786-0 renal) was 5.45 µM. It also gave a GI50 (EKVX NSCLC) of 0.48 µM, a TGI (EKVX NSCLC) of 7.19 µM and a GI50 (OVCAR-3 ovarian) of 3.08 µM. The TGI (OVCAR-3 ovarian) was 6.43 µM, the GI50 (HCC-2998 colon) was 0.558 µM and the TGI (HCC-2998 colon) was 5.63 µM. The GI50 (KM12 colon) was 3.14 µM, the TGI (KM12 colon) was 7.97 µM and the GI50 (DU-145 prostate) was 0.234 µM. The TGI (DU-145 prostate) was 4.63 µM, the GI50 (SW-620 colon) was 0.0905 µM and the TGI (SW-620 colon) was 4.17 µM. For the same compound, the GI50 (CCRF-CEM leukemia) was 0.277 µM, the TGI (CCRF-CEM leukemia) was 21.3 µM and the GI50 (COLO 205 colon) was 0.0241 µM. The TGI (COLO 205 colon) was 0.126 µM, the GI50 (LOX IMVI melanoma) was 0.124 µM and the TGI (LOX IMVI melanoma) was 4.63 µM. For the same compound, the GI50 (RXF 393 renal) was 0.857 µM, the TGI (RXF 393 renal) was 5.27 µM and the GI50 (HS 578T breast) was 2.67 µM. For the same compound, the TGI (HS 578T breast) was 9.8 µM, the GI50 (SK-MEL-5 melanoma) was 0.747 µM and the TGI (SK-MEL-5 melanoma) was 5.28 µM. It also gave a GI50 (MDA-MB-435) of 0.242 µM, a TGI (MDA-MB-435) of 5.45 µM and a GI50 (UO-31 renal) of 0.996 µM. It also gave a TGI (UO-31 renal) of 5.28 µM, a GI50 (HOP-92 NSCLC) of 0.0148 µM and a TGI (HOP-92 NSCLC) of 0.687 µM. The GI50 (MALME-3M melanoma) was 0.228 µM, the TGI (MALME-3M melanoma) was 5.22 µM and the GI50 (MOLT-4 leukemia) was 5.24 µM. The TGI (MOLT-4 leukemia) was 15.4 µM, the GI50 (SK-OV-3 ovarian) was 0.317 µM and the TGI (SK-OV-3 ovarian) was 3.03 µM. The GI50 (MCF7 breast) was 0.0154 µM, the TGI (MCF7 breast) was 4.07 µM and the GI50 (RPMI-8226 leukemia) was 3.69 µM. It also gave a TGI (RPMI-8226 leukemia) of 12.5 µM, a GI50 (K-562 leukemia) of 3.31 µM and a TGI (K-562 leukemia) of 15.2 µM. For the same compound, the GI50 (SF-295 CNS) was 3.99 µM and the TGI (SF-295 CNS) was 10.3 µM.

Source: PubChem BioAssay (NCI)
